The target of data set [1] is T1, CYP2A6 (Homo sapiens, UniProt P11509).
T1 sequence (P11509 whole entry): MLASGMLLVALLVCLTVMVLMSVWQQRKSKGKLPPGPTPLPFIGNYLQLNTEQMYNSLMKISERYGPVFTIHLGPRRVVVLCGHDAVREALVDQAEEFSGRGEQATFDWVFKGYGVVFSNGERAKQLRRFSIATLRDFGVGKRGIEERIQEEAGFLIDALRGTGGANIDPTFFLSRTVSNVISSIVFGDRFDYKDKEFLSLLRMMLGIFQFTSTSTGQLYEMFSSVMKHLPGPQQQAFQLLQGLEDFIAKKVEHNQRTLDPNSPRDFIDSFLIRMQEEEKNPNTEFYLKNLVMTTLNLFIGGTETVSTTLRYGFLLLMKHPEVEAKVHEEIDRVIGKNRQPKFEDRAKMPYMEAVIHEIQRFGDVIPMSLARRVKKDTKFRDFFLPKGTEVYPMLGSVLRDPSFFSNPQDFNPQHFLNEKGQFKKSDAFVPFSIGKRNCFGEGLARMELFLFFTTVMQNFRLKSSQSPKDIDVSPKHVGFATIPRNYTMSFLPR
In words: Inhibition of CYP2A6 in human liver microsomes at 10 uM using coumarin as substrate preincubated for 5 mins followed by NADPH generating system addition and measured after 120 mins by LC-MS/MS analysis relative to control. Type of data set: ADME. As to conditions: probe coumarin, time 125 min.

Data set [2] is described as follows: Cmax in male Sprague-Dawley rat at 10 mg/kg, po administered as single dose by LC-MS analysis. Type of data set: ADME, organism-based. Set-up: route oral, dose 10 mg/kg. As to conditions: in vivo.
Data set [3] addresses CYP2E1 (Homo sapiens, UniProt P05181). Kind of data set: Inhibition of CYP2E1 in human liver microsomes at 10 uM using chlorzoxazone as substrate preincubated for 5 mins followed by NADPH generating system addition and measured after 120 mins by LC-MS/MS analysis relative to control. The format is ADME. As to conditions: probe chlorzoxazone, time 125 min.
Data set [4] is described as follows: AUC (0 to infinity) in male Sprague-Dawley rat at 10 mg/kg, po administered as single dose by LC-MS analysis. The format is ADME, organism-based. As to conditions: in vivo. Set-up: route oral, time infinity, dose 10 mg/kg.
The nature of data set [5]: Stability of compound in simulated gastric fluid assessed as parent compound remaining at 10 uM after 12 hrs by HPLC analysis relative to control.
For data set [6], the target named is CYP2C19 (Homo sapiens, UniProt P33261). In words: Inhibition of CYP2C19 in human liver microsomes at 10 uM using S-mephenytoin as substrate preincubated for 5 mins followed by NADPH generating system addition and measured after 120 mins by LC-MS/MS analysis relative to control. The format is ADME. As to conditions: probe S-mephenytoin, time 125 min.
CYP2C19, sequence (P33261 whole entry): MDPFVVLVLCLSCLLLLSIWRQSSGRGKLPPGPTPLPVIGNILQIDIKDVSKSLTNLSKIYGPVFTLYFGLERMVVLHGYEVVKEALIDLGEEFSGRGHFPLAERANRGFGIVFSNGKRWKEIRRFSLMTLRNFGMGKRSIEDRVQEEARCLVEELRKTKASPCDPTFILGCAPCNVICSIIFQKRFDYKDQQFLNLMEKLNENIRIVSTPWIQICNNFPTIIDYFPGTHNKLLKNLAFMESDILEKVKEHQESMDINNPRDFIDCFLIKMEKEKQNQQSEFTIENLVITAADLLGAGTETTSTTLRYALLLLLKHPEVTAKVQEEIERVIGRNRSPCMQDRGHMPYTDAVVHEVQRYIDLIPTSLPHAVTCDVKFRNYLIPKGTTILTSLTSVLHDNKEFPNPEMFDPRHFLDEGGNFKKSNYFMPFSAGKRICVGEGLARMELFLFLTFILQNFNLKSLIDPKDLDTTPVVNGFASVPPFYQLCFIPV
Data set [7] can be described thus: Tmax in male Sprague-Dawley rat at 10 mg/kg, po administered as single dose by LC-MS analysis. Type of data set: ADME, organism-based. As to conditions: in vivo.
Data set [8] in a line: Metabolic stability of compound in rat liver microsomes assessed as elimination half-life at 0.2 uM in presence of NADPH by LC-MS/MS analysis. Type of data set: ADME, Microsome. As to conditions: read-out: beta t1/2.
The nature of data set [9]: Stability of compound in simulated intestinal fluid assessed as parent compound remaining at 10 uM after 12 hrs by HPLC analysis relative to control.
Data set [10] deals with T2, CYP1A2 (Homo sapiens, UniProt P05177).
T2 sequence (P05177 whole entry): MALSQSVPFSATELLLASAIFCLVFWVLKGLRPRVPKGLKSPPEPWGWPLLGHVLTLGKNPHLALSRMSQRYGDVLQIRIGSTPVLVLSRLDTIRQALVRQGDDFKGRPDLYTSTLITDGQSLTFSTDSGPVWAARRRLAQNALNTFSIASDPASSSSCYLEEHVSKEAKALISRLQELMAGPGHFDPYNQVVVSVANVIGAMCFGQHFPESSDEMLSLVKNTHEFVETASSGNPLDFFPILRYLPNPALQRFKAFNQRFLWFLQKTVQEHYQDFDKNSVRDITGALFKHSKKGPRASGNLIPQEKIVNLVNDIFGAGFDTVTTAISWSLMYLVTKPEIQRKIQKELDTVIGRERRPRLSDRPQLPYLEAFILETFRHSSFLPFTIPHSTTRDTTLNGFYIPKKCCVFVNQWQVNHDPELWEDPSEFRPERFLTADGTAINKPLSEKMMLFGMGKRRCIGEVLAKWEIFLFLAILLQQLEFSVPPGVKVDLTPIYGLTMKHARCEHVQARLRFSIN
Kind of data set: Inhibition of CYP1A2 in human liver microsomes at 10 uM using phenacetin as substrate preincubated for 5 mins followed by NADPH generating system addition and measured after 120 mins by LC-MS/MS analysis relative to control. The format is ADME. As to conditions: probe phenacetin, time 125 min.

The test system of data set [11] is Plasma. Kind of data set: Antiplatelet activity in rabbit platelet-rich plasma assessed as inhibition of ADP-induced platelet aggregation preincubated for 5 mins followed by ADP addition measured every 1 min for up to 6 mins by microplate reader analysis. Type of data set: functional, cell-free. As to conditions: Oryctolagus cuniculus.
A short description of data set [12]: Apparent volume of distribution in male Sprague-Dawley rat at 10 mg/kg, po administered as single dose by LC-MS analysis. Type of data set: ADME, organism-based. As to conditions: in vivo.
Data set [13] concerns the target CYP2C9 (Homo sapiens, UniProt P11712). In words: Inhibition of CYP2C9 in human liver microsomes at 10 uM using tolbutamide as substrate preincubated for 5 mins followed by NADPH generating system addition and measured after 120 mins by LC-MS/MS analysis relative to control. Type of data set: ADME. As to conditions: probe tolbutamide, time 125 min.
The nature of data set [14]: Elimination half-life in male Sprague-Dawley rat at 10 mg/kg, po administered as single dose by LC-MS analysis. The format is ADME, organism-based. As to conditions: in vivo, read-out: beta t1/2 (converted).
Data set [15] addresses CYP3A4 (Homo sapiens, UniProt P08684). In words: Inhibition of CYP3A4 in human liver microsomes at 10 uM using testosterone as substrate preincubated for 5 mins followed by NADPH generating system addition and measured after 120 mins by LC-MS/MS analysis relative to control. The format is ADME. As to conditions: probe testosterone, time 125 min.
For data set [16], the target named is P2Y purinoceptor 12 (Homo sapiens, UniProt Q9H244). Kind of data set: Agonist activity at P2Y12 in human whole blood assessed as decrease in PGE1-induced VASP phosphorylation at 100 to 200 uM measured after 10 mins by immunostaining based flow cytometric analysis. The format is tissue-based. As to conditions: dose 100-200 µM.
P2Y purinoceptor 12, sequence (Q9H244 whole entry): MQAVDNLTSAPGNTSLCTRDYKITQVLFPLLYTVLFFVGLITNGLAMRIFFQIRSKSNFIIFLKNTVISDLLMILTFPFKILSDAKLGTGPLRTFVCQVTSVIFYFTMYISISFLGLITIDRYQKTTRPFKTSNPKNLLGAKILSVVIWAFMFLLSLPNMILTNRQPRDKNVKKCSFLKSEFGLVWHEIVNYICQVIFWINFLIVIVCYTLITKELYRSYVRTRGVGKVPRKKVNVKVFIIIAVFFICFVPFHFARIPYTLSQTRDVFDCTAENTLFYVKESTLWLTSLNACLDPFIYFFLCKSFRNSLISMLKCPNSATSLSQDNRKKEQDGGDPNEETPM
Data set [17] in a line: Metabolic stability of compound in human liver microsomes assessed as elimination half-life at 0.2 uM in presence of NADPH by LC-MS/MS analysis. As to conditions: read-out: beta t1/2. The format is ADME, Microsome.
A short description of data set [18]: Clearance in male Sprague-Dawley rat at 10 mg/kg, po administered as single dose by LC-MS analysis. The format is ADME, organism-based. As to conditions: in vivo.
For data set [19], the target named is CYP2D6 (Homo sapiens, UniProt P10635). Kind of data set: Inhibition of CYP2D6 in human liver microsomes at 10 uM using dextromethorphan as substrate preincubated for 5 mins followed by NADPH generating system addition and measured after 120 mins by LC-MS/MS analysis relative to control. Type of data set: ADME. As to conditions: probe dextromethorphan, time 125 min.
CYP2D6, sequence (P10635 whole entry): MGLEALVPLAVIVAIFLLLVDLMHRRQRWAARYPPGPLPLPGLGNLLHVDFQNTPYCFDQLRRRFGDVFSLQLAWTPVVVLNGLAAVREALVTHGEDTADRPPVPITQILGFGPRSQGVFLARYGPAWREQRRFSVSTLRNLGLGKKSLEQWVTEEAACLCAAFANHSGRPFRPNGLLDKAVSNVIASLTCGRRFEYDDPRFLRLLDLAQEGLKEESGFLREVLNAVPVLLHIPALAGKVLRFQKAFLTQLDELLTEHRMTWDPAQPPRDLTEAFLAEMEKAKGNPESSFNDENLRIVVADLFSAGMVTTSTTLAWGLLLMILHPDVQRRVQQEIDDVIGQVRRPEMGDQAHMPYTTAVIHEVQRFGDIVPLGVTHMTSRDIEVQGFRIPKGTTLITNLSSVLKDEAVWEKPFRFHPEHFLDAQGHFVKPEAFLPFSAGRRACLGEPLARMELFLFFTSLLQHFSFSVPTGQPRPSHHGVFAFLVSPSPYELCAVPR

Data set [20] in a line: Toxicity in Sprague-Dawley rat model of tail-snip bleeding assessed as increase in bleeding time at 10 mg/kg, po administered via gavage as single dose measured within 2 hrs post tail snip relative to control. The format is organism-based. As to conditions: in vivo.
Data set [21] in a line: Prodrug conversion in male Sprague-Dawley rat assessed as 1-[(4-Cyanobenzyl)oxy]-2-(3-cyanophenyl)-4-methyl-1H-imidazole-5-carboxylic acid formation at 10 mg/kg, po measured at 10 mins by LC-MS analysis. Type of data set: ADME, organism-based. As to conditions: in vivo.

The source made the active and inactive calls. The rule behind the calls is not given here.

Results on two molecules are retold here after ChEMBL document CHEMBL4673353, “Switching a Xanthine Oxidase Inhibitor to a Dual-Target Antagonist of P2Y and P2Y as an Oral Antiplatelet Agent with a Wider Therapeutic Window in Rats than Ticagrelor” (J Med Chem, 2020).

CYP3A4, sequence (P08684 whole entry): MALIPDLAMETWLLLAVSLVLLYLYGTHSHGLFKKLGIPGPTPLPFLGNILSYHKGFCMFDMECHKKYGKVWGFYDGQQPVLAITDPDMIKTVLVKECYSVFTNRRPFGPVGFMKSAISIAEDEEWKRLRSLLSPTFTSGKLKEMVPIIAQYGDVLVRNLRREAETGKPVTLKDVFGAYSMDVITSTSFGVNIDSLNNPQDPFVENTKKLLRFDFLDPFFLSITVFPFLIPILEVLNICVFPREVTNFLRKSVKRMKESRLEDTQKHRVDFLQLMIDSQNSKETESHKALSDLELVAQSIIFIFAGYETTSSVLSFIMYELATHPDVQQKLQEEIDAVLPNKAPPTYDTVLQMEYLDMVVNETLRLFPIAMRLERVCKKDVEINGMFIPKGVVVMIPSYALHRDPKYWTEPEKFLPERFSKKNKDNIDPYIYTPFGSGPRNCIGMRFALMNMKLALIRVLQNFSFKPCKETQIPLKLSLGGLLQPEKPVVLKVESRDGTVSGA
CYP2C9, sequence (P11712 whole entry): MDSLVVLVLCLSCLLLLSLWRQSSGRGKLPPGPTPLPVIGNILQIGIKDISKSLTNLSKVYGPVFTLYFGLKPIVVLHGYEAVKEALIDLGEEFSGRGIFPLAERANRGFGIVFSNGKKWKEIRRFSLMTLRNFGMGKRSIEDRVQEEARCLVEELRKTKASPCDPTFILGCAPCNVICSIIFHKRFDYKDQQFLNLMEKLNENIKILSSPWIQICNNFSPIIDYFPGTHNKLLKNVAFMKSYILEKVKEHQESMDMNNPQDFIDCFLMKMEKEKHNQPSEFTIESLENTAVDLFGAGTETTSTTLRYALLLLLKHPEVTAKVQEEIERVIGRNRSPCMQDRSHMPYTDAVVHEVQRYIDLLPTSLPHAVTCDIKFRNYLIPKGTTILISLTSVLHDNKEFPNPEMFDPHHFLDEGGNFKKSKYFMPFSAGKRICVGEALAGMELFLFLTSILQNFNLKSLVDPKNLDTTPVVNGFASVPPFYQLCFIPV
CYP2E1, sequence (P05181 whole entry): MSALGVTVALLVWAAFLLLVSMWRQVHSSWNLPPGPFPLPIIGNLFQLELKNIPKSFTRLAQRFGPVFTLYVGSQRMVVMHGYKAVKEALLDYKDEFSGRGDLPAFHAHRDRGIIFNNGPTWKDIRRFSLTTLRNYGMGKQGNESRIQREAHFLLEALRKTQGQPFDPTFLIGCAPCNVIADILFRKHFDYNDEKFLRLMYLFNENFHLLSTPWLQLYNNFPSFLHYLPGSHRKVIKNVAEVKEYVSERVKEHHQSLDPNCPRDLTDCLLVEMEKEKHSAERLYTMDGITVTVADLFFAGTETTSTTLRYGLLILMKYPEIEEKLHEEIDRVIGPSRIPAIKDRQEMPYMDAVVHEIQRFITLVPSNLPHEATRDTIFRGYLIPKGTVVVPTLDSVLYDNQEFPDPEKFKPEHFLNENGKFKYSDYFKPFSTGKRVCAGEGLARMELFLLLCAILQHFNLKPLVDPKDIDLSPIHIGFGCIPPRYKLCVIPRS

On to `Cc1nc(-c2cccc(C#N)c2)n(OCc2ccc(C#N)cc2)c1C(=O)O`, for which the inhibition at 2 h, 10 µM was 3.64% in [1]; 6.79% in [3]; 1.97% in data set [6]; 0.11% in data set [10]; 0.41% in data set [13]; 7.4% in data set [15]. Also, in [19], the inhibition at 2 h, 10 µM is 2.42%. This molecule displayed a Cmax in data set [2] of 214 ng/mL. This molecule returned an AUC(0-inf) in data set [4] of 809 ng·h/mL. Further, the Stability was 90% in [5] and 73% in [9]. In addition, the Tmax in data set [7] was 0.167 h. The half-life at 0.2 µM in [8] and in data set [17] was > 2 h each time. For the same molecule, in data set [11], the IC50 was 3.88 µM. Besides, the Vz in data set [12] came out at 239.6 L/kg. Moreover, the half-life in data set [14] was 13.1 h. In [16], the outcome was inactive. For the same molecule, the apparent clearance CL/F in data set [18] was 261 mL/min/kg.

As for `CCOC(=O)c1c(C)nc(-c2cccc(C#N)c2)n1OCc1ccc(C#N)cc1`, the inhibition at 2 h, 10 µM was determined as 7.69% in [1]; 8.68% in [3]; 4.52% in data set [6]; 3.85% in data set [10]; 0.024% in data set [13]; 2.16% in data set [15]. Also, in data set [19], the inhibition at 2 h, 10 µM was found to be 31.7%. Further, the “fold change (FC)” value in data set [20] is given as 1.92. This molecule displayed a Cmax in data set [2] of 68 ng/mL. In addition, the AUC(0-inf) in [4] was 1140 ng·h/mL. Further, the results for the Stability in [5] and in data set [9] were 90% and 93%, respectively. The Tmax in data set [7] was found to be 0.46 h. Moreover, the half-life at 0.2 µM was found to be 0.385 h in [8] and 2.01 h in [17]. Further, the IC50 in data set [11] was 4.24 µM. For the same molecule, in [12], the Vz came to 190.56 L/kg. Moreover, the half-life in [14] was 13.8 h. Moreover, the CL/F in [18] is 207 mL/min/kg. Besides, the Drug metabolism result in [21] was “Metabolite_Detected”.
